# Species on record: Rattus norvegicus
# Type: toxicity, organism-based, Sprague-Dawley
# Conditions: in vivo, 0 mg/kg, 24 h, dose level Control, time 1 day, vehicle 100 % SALINE
# [1] = sc, tissue Blood, route mini-PUMP - SUBCUTANEOUS
# [2] = sc, tissue Plasma, route mini-PUMP - SUBCUTANEOUS
# [3] = iv, vehicle control, tissue Blood
# [4] = iv, vehicle control, tissue Plasma
# Description: DrugMatrix - Regimen: Single
compound,measurement,setting,value
CNC[C@H](O)c1ccc(O)c(O)c1 [EPINEPHRINE],ABSOLUTE EOSINOPHIL,[1],26.17 CELLS/uL
same,ABSOLUTE LYMPHOCYTE,[1],10985.83 CELLS/uL
same,ABSOLUTE MONOCYTE,[1],234.5 CELLS/uL
same,ABSOLUTE SEGMENTED NEUTROPHIL,[1],1753.5 CELLS/uL
same,BASOPHIL,[1],0%
same,EOSINOPHIL,[1],0.17%
same,ERYTHROCYTE COUNT,[1],5.64 x10E6/uL
same,HEMOGLOBIN,[1],12.68 G/DL
same,LEUKOCYTE COUNT,[1],13 x10E3/uL
same,LYMPHOCYTE,[1],84.5%
same,MEAN CORPUSCULAR HEMOGLOBIN,[1],22.5 pg
same,MEAN CORPUSCULAR HEMOGLOBIN CONCENTRATION,[1],36.78 G/DL
same,MEAN CORPUSCULAR VOLUME,[1],61.18 fL
same,NEUTROPHIL,[1],13.5%
same,NUCLEATED RED BLOOD CELLS,[1],0.17 /100WBC
same,PLATELET COUNT,[1],679.17 x10E3/uL
same,ALANINE AMINOTRANSFERASE,[2],42.67 u/L
same,ALBUMIN,[2],3.77 G/DL
same,ALKALINE PHOSPHATASE,[2],291.17 u/L
same,ASPARTATE AMINOTRANSFERASE,[2],74.5 u/L
same,BLOOD UREA NITROGEN,[2],15.33 mg/dL
same,CARBON DIOXIDE,[2],30 mmol/L
same,CHLORIDE,[2],100.83 MEQ/L
same,CHOLESTEROL,[2],65.33 mg/dL
same,CREATININE,[2],0.15 mg/dL
same,LACTATE DEHYDROGENASE,[2],162.67 u/L
same,LIPASE,[2],8.5 u/L
same,PHOSPHORUS,[2],12.2 mg/dL
same,POTASSIUM,[2],5.73 MEQ/L
same,SODIUM,[2],144.7 MEQ/L
same,TOTAL BILIRUBIN,[2],0.15 mg/dL
same,TOTAL PROTEIN,[2],5.87 G/DL
same,URIC ACID,[2],1.93 mg/dL
CC(=O)[C@]1(O)Cc2c(O)c3c(c(O)c2[C@@H](O[C@H]2C[C@H](N)[C@H](O)[C@H](C)O2)C1)C(=O)c1ccccc1C3=O [IDARUBICIN],ABSOLUTE BASOPHIL,[3],280 cells/µL
same,ABSOLUTE EOSINOPHIL,[3],75 cells/µL
same,ABSOLUTE LYMPHOCYTE,[3],9060 cells/µL
same,ABSOLUTE MONOCYTE,[3],260 cells/µL
same,BASOPHIL,[3],2.17%
same,EOSINOPHIL,[3],0.62%
same,ERYTHROCYTE COUNT,[3],6.64 x10E6/uL
same,HEMATOCRIT,[3],42.6%
same,HEMOGLOBIN,[3],13.5 G/DL
same,LEUKOCYTE COUNT,[3],11.87 x10E3/uL
same,LYMPHOCYTE,[3],76.3%
same,MEAN CORPUSCULAR HEMOGLOBIN,[3],20.37 pg
same,MEAN CORPUSCULAR HEMOGLOBIN CONCENTRATION,[3],31.75 G/DL
same,MEAN CORPUSCULAR VOLUME,[3],64.17 fL
same,MONOCYTE,[3],2.1%
same,NEUTROPHIL,[3],16.75%
same,PLATELET COUNT,[3],1144.5 x10E3/uL
same,ALANINE AMINOTRANSFERASE,[4],42.75 u/L
same,ALBUMIN,[4],3.6 G/DL
same,ALKALINE PHOSPHATASE,[4],314.75 u/L
same,ASPARTATE AMINOTRANSFERASE,[4],66.5 u/L
same,BLOOD UREA NITROGEN,[4],14 mg/dL
same,CARBON DIOXIDE,[4],37.5 mmol/L
same,CHLORIDE,[4],108 MEQ/L
same,CHOLESTEROL,[4],74.25 mg/dL
same,CREATINE PHOSPHOKINASE,[4],271 u/L
same,CREATININE,[4],0.65 mg/dL
same,GLUCOSE,[4],171 mg/dL
same,LACTATE DEHYDROGENASE,[4],125.75 u/L
same,LIPASE,[4],27.5 u/L
same,PHOSPHORUS,[4],11.25 mg/dL
same,POTASSIUM,[4],6.72 MEQ/L
same,SODIUM,[4],153.5 MEQ/L
same,TOTAL BILIRUBIN,[4],0.23 mg/dL
same,TOTAL PROTEIN,[4],6.2 G/DL
same,URIC ACID,[4],0.85 mg/dL

# — ChEMBL document CHEMBL3885881, “DrugMatrix”
